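Method: 48-hour compound exposure of cells in 96-well plates, five concentrations, linear interpolation of endpoints. At the GI50, growth is halved.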 Active and inactive are the calls of the source. Rule as the data show it: active = GI50 up to about 1.1 µM and inactive = higher.

Some test systems named below: A549; ACHN; COLO 205; HOP-62; HOP-92; HT-29; Hs-578T; LOX IMVI; M14; MCF7; MDA-N; NCI-H23; NCI-H522; OVCAR-8; RPMI-8226; SK-MEL-28; SNB-75; UACC-257; UACC-62; DMS-273.
Assay in all cases: growth of human tumour cells (NCI), 48 h

In the case of `COc1cc(/C=C2\N=C(c3ccccc3)N(c3nc4c(OC)ccc(OC)c4s3)C2=O)ccc1O`, the GI50 is 69.3 µM (inactive) in the experiment with A549; 59.2 µM (inactive) in the experiment on ACHN; 96.8 µM (inactive) in the experiment on COLO 205; 90.8 µM (inactive) with HOP-62; 35.6 µM (inactive) in the experiment on HOP-92; > 100 µM (inactive) with HT-29. Besides, the GI50 with Hs-578T is 48.8 µM (inactive); in the experiment on LOX IMVI, 24 µM (inactive); in the experiment on M14 it was 88.5 µM (inactive); with MCF7 it was 17.3 µM (inactive); in the experiment on MDA-N, 24.1 µM (inactive); in the experiment with NCI-H23 it was > 100 µM (inactive). The GI50 with NCI-H522 is 31.1 µM (inactive); with OVCAR-8, 30.8 µM (inactive); in the experiment with RPMI-8226 it was 23.1 µM (inactive); in the experiment on SK-MEL-28, > 100 µM (inactive); with SNB-75, 8.34 µM (inactive); in the experiment with UACC-257 it was 38 µM (inactive). In addition, the GI50 with UACC-62 is 33 µM (inactive).
On to `COc1ccc(C(=O)C(CC2C(=O)NC(=O)NC2=O)c2ccc(OC)cc2)cc1` (centres undefined), for which the GI50 in the experiment on A549, in the experiment with ACHN, in the experiment with COLO 205, with DMS-273, with HOP-62 and in the experiment with HT-29 was > 100 µM (inactive) each time. Moreover, the GI50 in the experiment on LOX IMVI, in the experiment with M14, with NCI-H23, with NCI-H522, in the experiment with OVCAR-8 and with SK-MEL-28 was > 100 µM (inactive) each time. For the same compound, the GI50 in the experiment on SNB-75, in the experiment on UACC-257 and in the experiment with UACC-62 was > 100 µM (inactive) throughout.
Turning to `CC(=O)OC1C(C)OC(OC2C[C@](O)(C(C)=O)Cc3c(O)c4c(c(O)c32)C(=O)c2ccccc2C4=O)C(F)C1OC(C)=O` (some centres undefined), the GI50 in the experiment with A549 is 0.154 µM (active); in the experiment with ACHN, 0.114 µM (active); in the experiment with COLO 205, 1.98 µM (inactive); with HOP-62 it was 0.367 µM (active); in the experiment on HOP-92, 0.457 µM (active); in the experiment with HT-29, 1.42 µM (inactive). Besides, the GI50 in the experiment on Hs-578T was 0.476 µM (active); with LOX IMVI, 0.156 µM (active); with M14 it was 0.735 µM (active); with MCF7, 0.0474 µM (active); with MDA-N, 1.88 µM (inactive); in the experiment with NCI-H23 it was 0.245 µM (active). In addition, the GI50 was 0.61 µM (active) in the experiment on NCI-H522; 0.543 µM (active) in the experiment with OVCAR-8; 0.175 µM (active) in the experiment with RPMI-8226; 3.4 µM (inactive) with SK-MEL-28; 0.417 µM (active) in the experiment with SNB-75; 1.8 µM (inactive) in the experiment with UACC-257. Besides, in the experiment with UACC-62, the GI50 was 0.387 µM (active).
As for `COc1ccc2c(-c3ccc(O)cc3)c(Oc3ccccc3)c(=O)oc2c1`, the GI50 is 8.17 µM (inactive) in the experiment with A549; > 34.4 µM (inactive) with ACHN; > 100 µM (inactive) with COLO 205; 31.1 µM (inactive) in the experiment with HOP-62; 12 µM (inactive) in the experiment on HOP-92; 11.7 µM (inactive) in the experiment with HT-29. For the same compound, the GI50 was > 50 µM (inactive) in the experiment on Hs-578T; 8.61 µM (inactive) in the experiment with LOX IMVI; > 100 µM (inactive) in the experiment with M14; 4.61 µM (inactive) with MCF7; > 100 µM (inactive) in the experiment with MDA-N; 2.63 µM (inactive) in the experiment on NCI-H23. In addition, the GI50 with NCI-H522 is 8.2 µM (inactive); with OVCAR-8, 16.2 µM (inactive); in the experiment with RPMI-8226, 2.62 µM (inactive); in the experiment with SK-MEL-28, 96.8 µM (inactive); in the experiment with SNB-75, > 33.9 µM (inactive); in the experiment with UACC-257, > 100 µM (inactive). In addition, the GI50 in the experiment on UACC-62 is > 24.4 µM (inactive).
Consider `COc1cc2cc(C(=O)N3CC(CCl)c4ccc(N(C)C)cc43)[nH]c2c(OC)c1OC` (centres undefined), for which the GI50 in the experiment with A549 was 0.0194 µM (active); with ACHN it was 0.0199 µM (active); in the experiment with COLO 205, 0.0851 µM (active); in the experiment with HOP-62, 0.128 µM (active); in the experiment on HOP-92 it was 0.0861 µM (active); in the experiment with HT-29, 0.0817 µM (active). The GI50 is 0.294 µM (active) in the experiment with Hs-578T; 0.0755 µM (active) with LOX IMVI; 0.0923 µM (active) in the experiment on M14; 0.0207 µM (active) in the experiment with MCF7; 0.185 µM (active) with MDA-N; 0.0303 µM (active) in the experiment with NCI-H23. In addition, the GI50 in the experiment on NCI-H522 is 0.0127 µM (active); with OVCAR-8 it was 0.0989 µM (active); in the experiment on RPMI-8226, 0.043 µM (active); with SK-MEL-28, 0.0556 µM (active); in the experiment on SNB-75 it was 0.29 µM (active); in the experiment with UACC-257, 0.139 µM (active). Further, the GI50 with UACC-62 was 0.0592 µM (active).
With `CC(C)O/C=C1\C(=O)C2(SCCS2)[C@H]2CCCC[C@@H]12`, the GI50 in the experiment on A549 is 37.9 µM (inactive); in the experiment with ACHN, 39.3 µM (inactive); with COLO 205, 18.5 µM (inactive); in the experiment on DMS-273 it was 37.2 µM (inactive); with HOP-62, 38 µM (inactive); with M14 it was 42.6 µM (inactive). Besides, the GI50 is 20.5 µM (inactive) in the experiment on NCI-H522; 36.6 µM (inactive) with OVCAR-8; 25.4 µM (inactive) in the experiment with RPMI-8226; > 100 µM (inactive) in the experiment on SK-MEL-28; 28.8 µM (inactive) in the experiment with SNB-75; 42.6 µM (inactive) in the experiment with UACC-257. The GI50 in the experiment with UACC-62 was 20.9 µM (inactive).
As for `CC1=NN(c2nc(N)nc(/C(C#N)=C/c3ccc([N+](=O)[O-])o3)n2)C(C)(C)C1`, the GI50 is 13.1 µM (inactive) in the experiment on A549; 1.81 µM (inactive) in the experiment with ACHN; 1.65 µM (inactive) in the experiment with COLO 205; 17.2 µM (inactive) in the experiment on HOP-62; 1.95 µM (inactive) in the experiment with HOP-92; 2.09 µM (inactive) with HT-29. The GI50 with Hs-578T is 13.2 µM (inactive); with LOX IMVI, 1.73 µM (inactive); in the experiment on M14, 1.57 µM (inactive); in the experiment with MCF7, 1.69 µM (inactive); with MDA-N it was 3.05 µM (inactive); in the experiment with NCI-H23 it was 3.45 µM (inactive). In addition, the GI50 with NCI-H522 is 1.66 µM (inactive); in the experiment with OVCAR-8, 2.51 µM (inactive); in the experiment with RPMI-8226, 3.01 µM (inactive); in the experiment on SK-MEL-28, 5.06 µM (inactive); with SNB-75, 2.85 µM (inactive); in the experiment with UACC-257 it was 10 µM (inactive). Also, the GI50 in the experiment on UACC-62 was 2.19 µM (inactive).
Regarding `CC(=O)Nc1ccc2cc3[nH]c4cc(NC(C)=O)ccc4c3nc2c1`, the GI50 in the experiment on A549, in the experiment with ACHN, in the experiment on COLO 205, with HOP-62, in the experiment on HOP-92 and with HT-29 was > 100 µM (inactive) in each case. In addition, the GI50 in the experiment on Hs-578T, with LOX IMVI, in the experiment on M14, with MCF7, in the experiment on MDA-N and in the experiment on NCI-H23 was > 100 µM (inactive) each time. For the same compound, the GI50 in the experiment with NCI-H522, in the experiment with OVCAR-8, in the experiment on RPMI-8226, in the experiment with SK-MEL-28, with SNB-75 and in the experiment on UACC-257 was > 100 µM (inactive) each time. Besides, the GI50 in the experiment on UACC-62 is > 100 µM (inactive).
Consider `Cc1cc2occ(S(=O)(=O)NC(=O)Nc3ccc(Cl)cc3)c(=O)c2c(=O)o1`, for which the GI50 in the experiment with A549 is > 100 µM (inactive); in the experiment with ACHN it was 40.2 µM (inactive); in the experiment with COLO 205 it was > 100 µM (inactive); in the experiment on HOP-62, > 100 µM (inactive); in the experiment with HOP-92 it was > 100 µM (inactive); in the experiment on HT-29, > 100 µM (inactive). Moreover, the GI50 with Hs-578T, in the experiment with LOX IMVI, with M14, with MCF7, in the experiment on MDA-N and in the experiment on NCI-H23 was > 100 µM (inactive) in each case. Further, the GI50 in the experiment with NCI-H522, in the experiment on OVCAR-8, in the experiment with RPMI-8226, in the experiment with SK-MEL-28, in the experiment on SNB-75 and in the experiment on UACC-257 was > 100 µM (inactive) in each case. Besides, the GI50 in the experiment with UACC-62 was 23.4 µM (inactive).
With `CCC12C=CCN(CCc3c([nH]c4ccccc34)/C=C\1)C2` (centres undefined), the GI50 in the experiment with A549, with ACHN, in the experiment on COLO 205, in the experiment with DMS-273, in the experiment on HOP-62 and in the experiment on HT-29 was > 100 µM (inactive) each time. Besides, the GI50 is > 100 µM (inactive) with LOX IMVI; > 100 µM (inactive) in the experiment on M14; > 100 µM (inactive) in the experiment with NCI-H23; > 100 µM (inactive) in the experiment with NCI-H522; > 100 µM (inactive) in the experiment on RPMI-8226; 44.6 µM (inactive) in the experiment with SNB-75. In addition, the GI50 with UACC-257 and in the experiment with UACC-62 was > 100 µM (inactive) each time.
`O=C(CC(=O)N1N=C(c2ccccc2)C(/N=N/c2ccc(S(=O)(=O)CCOS(=O)(=O)O)cc2)C1=O)Nc1ccc(Cl)cc1` (centres undefined): the GI50 was > 100 µM (inactive) with A549; 9.82 µM (inactive) in the experiment with ACHN; > 100 µM (inactive) with COLO 205; > 100 µM (inactive) in the experiment on HOP-62; > 100 µM (inactive) in the experiment with HOP-92; > 100 µM (inactive) with HT-29. For the same compound, the GI50 with Hs-578T was 20.6 µM (inactive); in the experiment with LOX IMVI it was 84.1 µM (inactive); in the experiment with M14, 28.1 µM (inactive); in the experiment with MCF7, > 100 µM (inactive); in the experiment on MDA-N, > 100 µM (inactive); in the experiment with NCI-H23, > 100 µM (inactive). For the same compound, the GI50 was 30.9 µM (inactive) with NCI-H522; > 100 µM (inactive) in the experiment on OVCAR-8; > 100 µM (inactive) in the experiment with RPMI-8226; > 100 µM (inactive) in the experiment with SK-MEL-28; > 100 µM (inactive) in the experiment with SNB-75; > 100 µM (inactive) in the experiment on UACC-257. In addition, the GI50 with UACC-62 was > 100 µM (inactive).

These data come from ChEMBL document CHEMBL1201862, “PubChem BioAssay data set” (2004).
